Columns and labels:
patients with diabetes = test: HOPE trial: HbA1c levels among the patients with diabetes; assay type: in vivo; conditions: serial annual recordings, first 2 years
Experimental: The Study to Evaluate Carotid Ultrasound changes in patients treated with Ramipril and vitamin E (SECURE) in which fasting glucose increased more with placebo (15.8 mg/dL [0.41 mmols]) than with ramipril (9.6 mg/dL (0.25 mmols]; P=0.03). Among the patients with diabetes in the HOPE study, there was a significant reduction in HbA1c levels during serial annual recordings occurred during the first 2 years (absolute difference, 0.2%). In the UK Prospective Diabetes Study (UKPDS) and in the Captopril Prevention Project, patients randomized to receive ACE inhibitors had lower levels of HbA1c or less development of diabetes compared with those taking β-blockers or diuretics. However, it is not clear whether the differences in development of diabetes observed in these studies are due to a protective effect of ACE inhibitors or an adverse effect of β-blockers or diuretics.

[1] = system: patients older than 55 years without known diabetes but with vascular disease; test: Heart Outcomes Prevention Evaluation (HOPE) trial: new diagnosis of diabetes; assay type: in vivo; conditions: for New Diabetes With Glycated Hemoglobin ≧110% ULN, RR (95% CI) / New Diabetes With Oral Agents or Insulin and Glycated Hemoglobin ≧110% ULN, RR (95% CI) / New Diabetes With Oral Agents or Insulin, RR (95% CI) / New Diabetes, RR (95% CI): vs placebo
Experimental: The design of the Heart Outcomes Prevention Evaluation (HOPE) trial has been described in detail in previous publications. Briefly, individuals who were 55 years or older with no evidence of left ventricular dysfunction or heart failure and who had evidence of vascular disease or who had diabetes and 1 other risk factor were eligible as long as they had no indication or contraindication to receiving an ACE-inhibitor. The study was conducted in […] in 19 countries from 1994 to 1999. All patients provided written informed consent. Of 10576 eligible patients who participated in a run-in period during which they received 2.5 mg ramipril once daily for 1 week followed by matching placebo for 10 to 14 days, 1035 (9.8%) were excluded from randomization (3.2% for side effects, 3.7% for lack of consent). […] This Example focuses primarily on the latter group of patients. Of these patients, 5720 were randomized to receive up to 10 mg of ramipril once per day or equivalent placebo. One hundred sixty-seven patients who were randomized to receive a low dose (2.5 mg/day) of ramipril as part of the Study to Evaluate Carotid Ultrasound changes with Ramipril and Vitamin E (SECURE). All randomized patients were also randomized to receive 400 IU of Vitamin E or placebo. Follow-up visits occurred at 1 month and 6 months after randomization and then every 6 months (mean follow-up of 4.5 years). At each visit, we documented whether the diagnosis of diabetes had been made since the last visit. The primary outcome of this analysis is a new diagnosis of diabetes recorded on the basis of self-report. […] Hemoglobin A1c (HbA1c) levels and medications used among those diagnosed as having diabetes were also recorded. The HbA1c, levels were determined locally. Values higher than 110% of the upper limit of normal for each laboratory were considered to be biochemical confirmation of diabetes. Survival curves utilizing the Kaplan Meier and log-rank procedures were used to describe and compare the results in the 2 treatment groups. Because of the factorial design, all analyses were stratified for randomization to vitamin E or placebo. Subgroup analyses were conducted using tests of interaction in the Cox regression model. Design, Setting and Participants. The randomized, controlled Heart Outcomes Prevention Evaluation trial of 5720 patients older than 55 years without known diabetes but with vascular disease who were followed up for a mean of 4.5 years. The study included 267 hospitals in 19 countries and was conducted between 1994 and 1999. Intervention. Patients were randomly assigned to receive ramipril, up to 10 mg/d (n=2837), or I Main Outcome Measure. Diagnosis of diabetes determined from self-report at follow-up visits every 6 months, compared between the 2 groups.

[2] = controlling for primary events and development of MA or ON
[3] = ramipril up to 10 mg/d, n=2837, mean follow-up 4.5 years

Molecule: CCOC(=O)[C@H](CCc1ccccc1)N[C@@H](C)C(=O)N1[C@H](C(=O)O)C[C@@H]2CCC[C@@H]21 [ramipril]
- reduction in HbA1c levels, absolute difference (patients with diabetes): 0.2%
- RR, footnote | | (New Diabetes With Oral Agents or Insulin and Glycated Hemoglobin ≧110% ULN): new diabetes with patient taking glucose-lowering therapy [1, 2]: | |Controlling for primary events and development of MA or ON, new diabetes with patient taking glucose-lowering therapy had a 0.52 RR (95% CI, 35-0.78).
- RR, footnote § (New Diabetes With Oral Agents or Insulin): new diabetes with patient taking glucose-lowering therapy [1, 2]: §Controlling for primary events and development of MA or ON, new diabetes with patient taking glucose-lowering therapy had a 0.58 RR (95% CI, 42-0.79).
- RR, footnote † (New Diabetes): new diabetes with glycated hemoglobin 110% [1, 2]: †Controlling for primary events and development of MA or ON, new diabetes with glycated hemoglobin 110% had a 0.67 RR (95% CI, 0..52-0.86).
- RR, footnote ‡ (New Diabetes With Glycated Hemoglobin ≧110% ULN): new diabetes with patient taking glucose-lowering therapy [1, 2]: ‡Controlling for primary events and development of MA or ON, new diabetes with patient taking glucose-lowering therapy had a 0.58 RR (95% CI, 44-0.88).
- proportion diagnosed with diabetes receiving an oral glucose lowering agent or insulin ([1]; ramipril group): 2.1%
- proportion of patients diagnosed to have diabetes and a documented glycated hemoglobin of 110% or more above the upper limit of normal ([1]; ramipril group): 1.8%
- proportion with all criteria (diabetes, glycated hemoglobin, glucose-lowering therapy) ([1]; ramipril group): 1.3%
- relative risk [RR] of new diagnosis of diabetes ([1]; ramipril group vs placebo group): 0.66
- individuals who reported a new diagnosis of diabetes (number) [1, 3]: 102 and One hundred and two
- individuals who reported a new diagnosis of diabetes (proportion) [1, 3]: 3.6%
- RR for diabetes in the subgroup who never took diuretics or β-blockers during the study ([1]; ramipril vs placebo): 0.62
- RR, all criteria (both) ([1]; ramipril vs placebo): 0.51
- RR, diabetes with oral glucose lowering agent or insulin (initiation of glucose-lowering therapy) ([1]; ramipril vs placebo): 0.56
- RR, diagnosis of diabetes and glycated hemoglobin 110% or more ([1]; ramipril vs placebo): 0.60
- New Diabetes With Glycated Hemoglobin ≧110% ULN, number of patients ([1]; stratum: no new MA or ON): 42
- New Diabetes With Glycated Hemoglobin ≧110% ULN, proportion (in parentheses) ([1]; stratum: no new MA or ON): 1.7
- New Diabetes With Oral Agents or Insulin and Glycated Hemoglobin ≧110% ULN, number of patients ([1]; stratum: no new MA or ON): 30
- New Diabetes With Oral Agents or Insulin and Glycated Hemoglobin ≧110% ULN, proportion (in parentheses) ([1]; stratum: no new MA or ON): 1.2
- New Diabetes With Oral Agents or Insulin, number of patients ([1]; stratum: no new MA or ON): 45
- New Diabetes With Oral Agents or Insulin, proportion (in parentheses) ([1]; stratum: no new MA or ON): 1.8
- New Diabetes, number of patients ([1]; stratum: no new MA or ON): 82
- New Diabetes, proportion (in parentheses) ([1]; stratum: no new MA or ON): 9.3
- New Diabetes With Glycated Hemoglobin ≧110% ULN, RR (95% CI) ([1]; stratum: no new MA or ON): 0.66 (0.48-0.98)
- New Diabetes With Oral Agents or Insulin and Glycated Hemoglobin ≧110% ULN, RR (95% CI) ([1]; stratum: no new MA or ON): 0.80 (0.38-0.84)
- New Diabetes With Oral Agents or Insulin, RR (95% CI) ([1]; stratum: no new MA or ON): 0.56 (0.39-0.81)
- New Diabetes, RR (95% CI) ([1]; stratum: no new MA or ON): 0.87 (0.51-0.89)
- New Diabetes With Glycated Hemoglobin ≧110% ULN, number of patients ([1]; stratum: no primary event): 45
- New Diabetes With Glycated Hemoglobin ≧110% ULN, proportion (in parentheses) ([1]; stratum: no primary event): 1.8
- New Diabetes With Oral Agents or Insulin and Glycated Hemoglobin ≧110% ULN, number of patients ([1]; stratum: no primary event): 32
- New Diabetes With Oral Agents or Insulin and Glycated Hemoglobin ≧110% ULN, proportion (in parentheses) ([1]; stratum: no primary event): 1.9
- New Diabetes With Oral Agents or Insulin, number of patients ([1]; stratum: no primary event): 54
- New Diabetes With Oral Agents or Insulin, proportion (in parentheses) ([1]; stratum: no primary event): 2.2
- New Diabetes, number of patients ([1]; stratum: no primary event): 93
- New Diabetes, proportion (in parentheses) ([1]; stratum: no primary event): 3.8
- New Diabetes With Glycated Hemoglobin ≧110% ULN, RR (95% CI) ([1]; stratum: no primary event): 0.81 (0.42-0.89)
- New Diabetes With Oral Agents or Insulin and Glycated Hemoglobin ≧110% ULN, RR (95% CI) ([1]; stratum: no primary event): 0.61 (0.33-.78)
- New Diabetes With Oral Agents or Insulin, RR (95% CI) ([1]; stratum: no primary event): 0.58 (0.42-0.82)
- New Diabetes, RR (95% CI) ([1]; stratum: no primary event): 0.69 (0.53-0.91)
- New Diabetes With Glycated Hemoglobin ≧110% ULN, number of patients ([1]; stratum: with new MA or ON): 10
- New Diabetes With Glycated Hemoglobin ≧110% ULN, proportion (in parentheses) ([1]; stratum: with new MA or ON): 2.8
- New Diabetes With Oral Agents or Insulin and Glycated Hemoglobin ≧110% ULN, number of patients ([1]; stratum: with new MA or ON): 6
- New Diabetes With Oral Agents or Insulin and Glycated Hemoglobin ≧110% ULN, proportion (in parentheses) ([1]; stratum: with new MA or ON): 1.7
- New Diabetes With Oral Agents or Insulin, number of patients ([1]; stratum: with new MA or ON): 14
- New Diabetes With Oral Agents or Insulin, proportion (in parentheses) ([1]; stratum: with new MA or ON): 3.9
- New Diabetes, number of patients ([1]; stratum: with new MA or ON): 20
- New Diabetes, proportion (in parentheses) ([1]; stratum: with new MA or ON): 5.6
- New Diabetes With Glycated Hemoglobin ≧110% ULN, RR (95% CI) ([1]; stratum: with new MA or ON): 0.47 (0.23-0.98)
- New Diabetes With Oral Agents or Insulin and Glycated Hemoglobin ≧110% ULN, RR (95% CI) ([1]; stratum: with new MA or ON): 0.32 (0.13-0.79)
- New Diabetes With Oral Agents or Insulin, RR (95% CI) ([1]; stratum: with new MA or ON): 0.61 (0.32-1.16)
- New Diabetes, RR (95% CI) ([1]; stratum: with new MA or ON): 0.85 (0.38-1.12)
- New Diabetes With Glycated Hemoglobin ≧110% ULN, number of patients ([1]; stratum: with primary event): 7
- New Diabetes With Glycated Hemoglobin ≧110% ULN, proportion (in parentheses) ([1]; stratum: with primary event): 1.9
- New Diabetes With Oral Agents or Insulin and Glycated Hemoglobin ≧110% ULN, number of patients ([1]; stratum: with primary event): 4
- New Diabetes With Oral Agents or Insulin and Glycated Hemoglobin ≧110% ULN, proportion (in parentheses) ([1]; stratum: with primary event): 1.1
- New Diabetes With Oral Agents or Insulin, number of patients ([1]; stratum: with primary event): 5
- New Diabetes With Oral Agents or Insulin, proportion (in parentheses) ([1]; stratum: with primary event): 1.3
- New Diabetes, number of patients ([1]; stratum: with primary event): 9
- New Diabetes, proportion (in parentheses) ([1]; stratum: with primary event): 2.4
- New Diabetes With Glycated Hemoglobin ≧110% ULN, RR (95% CI) ([1]; stratum: with primary event): 0.59 (0.24-1.43)
- New Diabetes With Oral Agents or Insulin and Glycated Hemoglobin ≧110% ULN, RR (95% CI) ([1]; stratum: with primary event): 0.64 (0.17-1.72)
- New Diabetes With Oral Agents or Insulin, RR (95% CI) ([1]; stratum: with primary event): 0.42 (0.15-1.14)
- New Diabetes, RR (95% CI) ([1]; stratum: with primary event): 0.48 (0.21-0.98)
- results among subgroups with different risk factors for developing diabetes (FIG. 2) ([1]; waist to hip ratio, BMI, hypertension history, β-blockers or diuretics at randomization): consistent

Molecule: Vitamin E
- effect on diabetes compared with placebo ([1]; 400 IU of Vitamin E, factorial design): did not differ
